Test results as given in patent US20220289657A1, “COMPOSITION FOR PREVENTING OR TREATING BACTERIAL INFECTIOUS DISEASE COMPRISING 4-GINGEROL DERIVATIVE COMPOUND AS ACTIVE INGREDIENT” (KOREA UNIVERSITY RESEARCH AND BUSINESS FOUNDATION, SEJONG …, priority 2019, published 2022).
Like-named read-outs stand apart in the source and are kept apart here. Marks after values point to notes of the source that are not given here.

What was measured:
P. aeruginosa = assay: Rhamnolipid production assay; assay type: cell-based, Pseudomonas aeruginosa; conditions: for Relative biological activity (%) Rhamnolipid production: Table 4, concentration not given; for activity at 10 µM / activity at 100 µM: Pseudomonas aeruginosa, 24 h, Table 3; for activity at 10 µM: read-out: Relative biological activity (%) Rhamnolipid production 10; for activity at 100 µM: read-out: Relative biological activity (%) Rhamnolipid production 100
Protocol: P. aeruginosa (OD 595 nm=1.0) cultured overnight was inoculated in an AB medium (1:100) with a positive control or compound (0100 μM), and incubated using a shaking culture for 24 hours at 37° C. The cell culture was centrifuged for 5 minutes at 4° C. and 12,000 g. Rhamnolipids were extracted twice by mixing 200 μL of a supernatant and 400 μL of 100% diethyl ether (JUNSEI, Tokyo, Japan). The supernatant was transferred to a new tube and evaporated. A dried sample was eluted with 20 μL of deionized water, and reacted with 180 μL of an Orcinal solution (0.19% Orcinal (Sigma-Aldrich) in 53% H2SO4). The reaction mixture was heated for 30 minutes at 80° C., and cooled for 15 minutes at room temperature. The amount of rhamnolipids was measured at OD 421 nm, and normalized in the cell culture solution at OD 595 nm using a multimode plate reader.

RhlR = biological target: T1, RhlR (Pseudomonas aeruginosa, UniProt P54292); assay: cell-based; conditions: for Relative RhlR activity Antagonism: Table 2; for Relative RhIR activity (%) Agonism / Relative RhIR activity (%) Antagonism: Table 4, concentration not given; for activity at 100 µM: read-out: Relative RhlR activity Agonism, Table 2, matches the 100 column of Table 3; for Relative RhIR Activity (%) Agonism 100 / Relative RhIR Activity (%) Agonism 1000: Table 3; for Relative RhIR Activity (%) Agonism 1000: 1000 (μM); for remaining activity at 10 µM: read-out: Relative RhIR Activity (%) Antagonism 10, Table 3
T1 construct: expressed in transfected cells; host or cells: E. coli sdiA variant co-transformed with pJN105R and pSC11 (RhlA::lacZ)
T1 sequence (P54292 whole entry): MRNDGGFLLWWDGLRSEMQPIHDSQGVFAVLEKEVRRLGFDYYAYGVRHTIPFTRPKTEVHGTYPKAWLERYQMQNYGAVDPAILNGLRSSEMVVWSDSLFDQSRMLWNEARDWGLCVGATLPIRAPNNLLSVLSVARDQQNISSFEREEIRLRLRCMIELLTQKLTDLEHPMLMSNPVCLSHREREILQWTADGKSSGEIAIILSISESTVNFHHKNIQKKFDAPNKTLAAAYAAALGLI
Protocol: Escherichia coli (E. coli) DH5a includes LuxR homolog SdiA detecting endogenous AHL synthesized by other microbial species, particularly, BHL.
For RhlR reporter strain analysis, the present invention used pJN105R (RhlR expression plasmid), anspSC11 (RhlA::lacZ fusion plasmid) and an sdiA variant co-transformed with the two plasmids. 1% of an overnight-cultured reporter strain (OD 595 nm=1.0) supplemented with 10 μg/mL gentamicin and 50 μg/mL ampicillin was cultured in a Luria-Bertani (LB) medium (Difco, Detroit, Mich., USA) with a positive control or a compound (0-1000 μM) and BHL (0-10 μM) (Sigma-Aldrich) at 37° C. for 2 hours. 0.4% arabinose (Sigma-Aldrich) was reacted with the resulting product at 37° C. for 1.5 hours. β-galactosidase activity was evaluated using a Tropix plus kit (Applied Biosystems, CA, USA), and OD 595 nm and luminescence were measured using a VICTOR x5 multimode plate reader (PerkinElmer, Waltham, Mass., USA). Relative RhlR activity was quantified by measuring luminescence at OD 595 nm. In addition, for LasR reporter strain analysis, the present invention used pJN105L (LasR expression plasmid) and pSC11 (lasI::lacZ fusion plasmid), E. coli DH5a co-transformed with the two plasmids, and OdDHL (Sigma-Aldrich).

Pseudomonas aeruginosa [1] = assay: Static biofilm formation assay (crystal violet); assay type: cell-based; conditions: for Relative biological activity (%) Biofilm formation: Table 4, concentration not given; for activity at 10 µM / activity at 100 µM: Pseudomonas aeruginosa, 24 h, Table 3, static; for activity at 10 µM: read-out: Relative biological activity (%) Biofilm formation 10; for activity at 100 µM: read-out: Relative biological activity (%) Biofilm formation 100
Protocol: (§1) Pseudomonas aeruginosa (P. aeruginosa) (OD 595 nm=1.0) was cultured overnight, and diluted in an AB medium (1:20; 300 mM NaCl, 50 mM MgSO4, 0.2% vitamin-free casamino acids, 10 mM potassium phosphate, 1 mM L-arginine, and 1% glucose, pH 7.5) together with a positive control or compound (0100 μM) in a borosilicate bottle. The resulting mixture was incubated without shaking at 37° C. for 24 hours, and to measure growth inhibition activity. OD 595 nm of the suspended culture was measured using a multimode plate reader. Biofilm cells attached to the bottle were washed twice with phosphate-buffered saline (PBS; 137 mM NaCl, 2.7 mM KCl, 10 mM Na2HPO4, and 2 mM KH2PO4, pH 7.2). Afterward, the remaining biofilm cells were stained with 0.1% crystal violet for 10 minutes, and to remove the unbound crystal violet, washed with deionized water. The crystal violet […] to the biofilm cells was eluted with 100% ethanol, and the OD of the eluted ethanol sample was measured at 545 nm using a multimode plate reader.

Pseudomonas aeruginosa [2] = assay: Bacterial growth under static condition (OD 595 nm of suspended culture); assay type: cell-based; conditions: for Relative biological activity (%) Bacterial growth: Table 4, concentration not given; for activity at 10 µM / activity at 100 µM: Pseudomonas aeruginosa, 24 h, Table 3; for activity at 10 µM: read-out: Relative biological activity (%) Bacterial growth 10; for activity at 100 µM: read-out: Relative biological activity (%) Bacterial growth 100
Protocol: as §1

[3] = footnotes not given, 100 μM per Table 3, lower = stronger antagonism
[4] = read-out: Relative RhlR activity Antagonism, Table 2, footnotes not given, 100 μM per Table 3, lower = stronger antagonism
[5] = read-out: Relative RhIR Activity (%) Antagonism 100, Table 3, 100 (μM)

SMILES | Relative biological activity (%) Rhamnolipid production (P. aeruginosa) | Relative RhlR activity Antagonism (RhlR; [3]) | Relative RhIR activity (%) Agonism (RhlR) | Relative RhIR activity (%) Antagonism (RhlR) | activity at 100 µM (RhlR; footnotes not given) | remaining activity at 100 µM (RhlR; [4]) | Relative biological activity (%) Biofilm formation (Pseudomonas aeruginosa [1]) | Relative biological activity (%) Bacterial growth (Pseudomonas aeruginosa [2]) | activity at 10 µM (P. aeruginosa) | activity at 100 µM (P. aeruginosa) | Relative RhIR Activity (%) Agonism 100 (RhlR; 100 (μM)) | Relative RhIR Activity (%) Agonism 1000 (RhlR) | remaining activity at 10 µM (RhlR) | remaining activity at 100 µM (RhlR; [5]) | activity at 10 µM (Pseudomonas aeruginosa [1]) | activity at 100 µM (Pseudomonas aeruginosa [1]) | activity at 10 µM (Pseudomonas aeruginosa [2]) | activity at 100 µM (Pseudomonas aeruginosa [2])
CCCC(O)CC(=O)/C=C/c1ccc(OC)cc1 (stereo not drawn) [Compound 11f, (E)-5-Hydroxy-1-(4-methoxyphenyl)oct-1-en-3-one] | 88% | 55** % | 1** % | 55** % | 1% | 55% | 75* % | 102% |  |  |  |  |  |  |  |  |  | 
CCCCCCCCC(O)CC(=O)CCc1ccc(O)c(OC)c1 (stereo not drawn) [Compound 7, 5-Hydroxy-1-(4-hydroxy-3-methoxyphenyl)tridecan-3-one] | 69* % |  | 2** % | 41** % | 2% | 41% | 79** % | 89% |  |  |  |  |  |  |  |  |  | 
CCC[C@@H](O)C#Cc1ccc(F)c(F)c1 [Compound 33b, (R)-1-(3,4-Difluorophenyl)hex-1-yn-3-ol] |  |  |  |  | 3% | 25% |  |  | 60% | 48% | 3** % | 5** % | 45% | 25% | 74% | 60% | 98% | 102%
CCCC(O)CC(=O)/C=C/c1ccc(O)c(OC)c1 (stereo not drawn) [Compound 11a, (E)-5-Hydroxy-1-(4-hydroxy-3-methoxyphenyl)oct-1-en-3-one] | 67* % | 65** % | 4** % |  | 4% | 65% | 81* % | 101% | 73% | 57% | 4** % | 5** % | 73% | 65% | 82% | 65% | 102% | 95%
CCCC(O)CC(=O)/C=C/c1cccc(OC)c1 (stereo not drawn) [Compound 11c, (E)-5-Hydroxy-1-(3-methoxyphenyl)oct-1-en-3-one] | 95% |  | 2** % |  | 2% | 94% | 82* % | 101% | 91% | 83% | 2** % | 4** % | 89% | 94% | 88% | 73% | 96% | 95%
CCC[C@H](O)C#Cc1ccc(F)c(F)c1 [Compound 33c, (S)-1-(3,4-Difluorophenyl)hex-1-yn-3-ol] |  |  |  |  | 3% | 38% |  |  | 59% | 52% | 3** % | 5** % | 59% | 38% | 79% | 64% | 98% | 99%
CCCCC[C@H](O)C#Cc1ccc(O)c(OC)c1 [Compound 23c, (S)-4-(3-Hydroxyoct-1-yn-1-yl)-2-methoxyphenol] | 86% | 34** % | 3** % | 34** % | 3% | 34% | 67* % | 104% |  |  |  |  |  |  |  |  |  | 
CCCCCCCCCC(O)CC(=O)CCc1ccc(O)c(OC)c1 (stereo not drawn) [Compound 8, 5-Hydroxy-1-(4-hydroxy-3-methoxyphenyl)tetradecan-3-one] | 60* % |  | 2** % | 36** % | 2% | 36% | 80** % | 80** % |  |  |  |  |  |  |  |  |  | 
CCCC(O)C#Cc1ccc(F)c(F)c1 (racemic) [Compound 33a, 1-(3,4-Difluorophenyl)hex-1-yn-3-ol] |  |  |  |  | 3% | 32% |  |  |  | 49% | 3** % | 5** % | 45% | 32% | 73% | 60% | 100% | 104%
CCCC(O)CC(=O)/C=C/c1ccc(O)cc1 (stereo not drawn) [Compound 11d, (E)-5-Hydroxy-1-(4-hydroxyphenyl)oct-1-en-3-one] | 83% | 51** % | 1** % | 51** % | 1% | 51% | 74* % | 105% |  |  |  |  |  |  |  |  |  | 
CCCC(O)CC(=O)/C=C/c1ccc(O)c(OCC)c1 (stereo not drawn) [Compound 11n, (E)-1-(3-Ethoxy-4-hydroxyphenyl)-5-hydroxyoct-1-en-3-one] |  |  |  |  | 1% | 91% |  |  |  |  |  |  |  |  |  |  |  | 
CCCCC[C@H](O)C#Cc1ccc(F)c(F)c1 [Compound 35c, (S)-1-(3,4-Difluorophenyl)oct-1-yn-3-ol] |  |  |  |  | 4% | 67% |  |  |  |  |  |  |  |  |  |  |  | 
CCCC(O)CC(=O)/C=C/c1cc(F)cc(OC)c1 (stereo not drawn) [Compound 11r, (E)-1-(3-Fluoro-5-methoxyphenyl)-5-hydroxyoct-1-en-3-one] |  | 74** % |  |  | 3% | 74% |  |  |  |  |  |  |  |  |  |  |  | 
CCCC(O)CC(=O)CCc1ccc(F)cc1 (stereo not drawn) [Compound 12g, 1-(4-Fluorophenyl)-5-hydroxyoctan-3-one] |  |  |  |  | 2% | 51% |  |  |  |  |  |  |  |  |  |  |  | 
CCCCC(O)CC(=O)CCc1ccc(O)c(OC)c1 (stereo not drawn) [Compound 3, 5-Hydroxy-1-(4-hydroxy-3-methoxyphenyl)nonan-3-one] |  |  |  |  | 2% | 62% |  |  |  |  |  |  |  |  |  |  |  | 
